The record followed here is patent US7935688B2, “Vitamin D-like compound” (Chugai Seiyaku Kabushiki Kaisha, priority 2005, dated 2011).

The test system of this assay is osteocalcin production in MG-63 cells. Kind of assay: Osteocalcin production in MG-63 cells (Gla-type Osteocalcin EIA). In kind it is cell-based, human. Conditions: (EC50 value of 1,25(OH)2D3/EC50 value of each compound)×100; eight hours exposure, then four days culture. As to the method:
mg-63 was obtained from Institute for Fermentation, Osaka as a human osteoblast-like cell line. MG-63 cells were maintained and cultured in a MEM medium (Minimum essential medium; pH 7.0; Invitrogen Corporation, Carlsbad, Calif., USA) containing 5% fetal bovine serum (FBS; HyClone, Logan, Utah, USA).
MG-63 cells were adjusted to a density of 4.0×10^4 cells/mL, plated in a 96-well plate at 200 μL per well, and cultured under conditions of 37° C. and 5% carbon dioxide for 24 hours.
After removing the medium, MEM containing 5% charcoal/dextran treated FBS (DCC-FBS; Hyclone, Logan, Utah, USA) was added at 180 μL/well. The test substance (1.0×10^−3 mol/L) was diluted with dimethyl sulfoxide (DMSO) to 1.0×10^−4 mol/L, 1.0×10^−5 mol/L, 1.0×10^−6 mol/L, 1.0×10^−7 mol/L and 1.0×10^−8 mol/L. 1,25(OH)2D3 was used as a positive control. Like the test substance, 1,25(OH)2D3 was diluted with DMSO. 0.02 mL of the positive control and the test substance diluted 100-fold with MEM containing 5% DCC-FCS was added to each well of the 96-well plate, so that the final drug concentration was 1.0×10^−6 mol/L to 1.0×10^−11 mol/L. Thereafter, the cells were cultured under conditions of 37° C. and 5% carbon dioxide for eight hours.
After culturing for eight hours, the medium was removed, and MEM containing 5% DCC-FBS was added at 0.2 mL per well. The cells were cultured under conditions of 37° C. and 5% carbon dioxide for four days, and the medium was recovered. The medium was stored at −80° C. until osteocalcin measurement.
The Gla-type Osteocalcin EIA kit (Takara Bio Inc., Tokyo, Japan) was used for measurement of osteocalcin. Measurement was carried out using a microplate reader (Model 3550, Bio-Rad Laboratories, Inc., Hercules, Calif., USA) at a wavelength of 450 nm, and the results were analyzed by Microplate Manager III (Bio-Rad Laboratories, Inc., ver. 1.57).
The median effective concentration (EC50) was calculated from the osteocalcin concentration. Potency of induction of each compound was calculated as a ratio of EC50 of 1,25(OH)2D3 to EC50 of the compound. The relation between diseases and induction of osteocalcin production is described in Lancet (1984 May 19), 1 (8386), 1091-3; Steroids 66, 159-170 (2001); and Journal of Steroid Biochemistry & Molecular Biology 89-90, 269-271 (2004), for example.
The osteocalcin production level in MG-63 cells (%) was calculated by the formula: (EC50 value of 1,25(OH)2D3/EC50 value of each compound)×100.
On to `CCC(CC)(c1ccc(OCC(O)C(C)(C)C)c(C)c1)c1ccc(-c2ccc(CC(=O)O)cn2)c(C)c1` (centres unmarked) [Example 101, [6-(4-{1-ethyl-1-[4-(2-hydroxy-3,3-dimethyl-butoxy)-3-methyl-phenyl]-propyl}-2-methyl-phenyl)-pyridin-3-yl]-acetic Acid], for which the “Osteocalcin production level in MG-63 cells (%)” value stood at 508%.

Turning to `CCC(CC)(c1ccc(-c2cncc(CC(=O)O)c2)cc1)c1ccc(C#CC2(O)CCCC2)c(C)c1` [Example 148, [5-(4-{1-ethyl-1-[4-(1-hydroxy-cyclopentylethynyl)-3-methyl-phenyl]-propyl}-phenyl)-pyridin-3-yl]-acetic Acid], the “Osteocalcin production level in MG-63 cells (%)” value is 1022%.

As for `CCC(CC)(c1ccc(OCC(O)CO)c(C)c1)c1ccc(OCC(O)C(C)(C)C)c(C)c1` (centres unmarked) [LG190178, reference compound], the “Osteocalcin production level in MG-63 cells (%)” value was 185%.

For the molecule `CCC(CC)(c1ccc(/C=C/C2(O)CCCC2)c(C)c1)c1ccc(-c2ccc(CC(=O)O)cn2)c(C)c1` [Example 85, {6-[4-(1-ethyl-1-{4-[(E)-2-(1-hydroxy-cyclopentyl)-vinyl]-3-methyl-phenyl}-propyl)-2-methyl-phenyl]-pyridin-3-yl}-acetic Acid], the “Osteocalcin production level in MG-63 cells (%)” value turned out to be 765%.

As for `CCC(CC)(c1ccc(OCC(O)C(C)(C)C)c(C)c1)c1ccc(-c2ccc(CC(=O)O)cc2)c(C)c1` (centres unmarked) [Example 51, (4′-{1-ethyl-1-[4-(2-hydroxy-3,3-dimethyl-butoxy)-3-methyl-phenyl]-propyl}-2′-methyl-biphenyl-4-yl)-acetic Acid], the “Osteocalcin production level in MG-63 cells (%)” value is reported as 650%.

With `C=C1/C(=C\C=C2/CCC[C@]3(C)[C@@H]([C@H](C)CCCC(C)(C)O)CC[C@@H]23)C[C@@H](O)C[C@@H]1O` [1,25(OH)2D3, 1α,25-dihydroxyvitamin D3, reference compound], the “Osteocalcin production level in MG-63 cells (%)” value came out at 100%.

Regarding `CCC(CC)(c1ccc(CCC(O)C(C)(C)C)c(C)c1)c1ccc(-c2cncc(CC(=O)O)c2)c(C)c1` (single isomer, unassigned) [Example 24, [5-(4-{1-ethyl-1-[4-(3-hydroxy-4,4-dimethyl-pentyl)-3-methyl-phenyl]-propyl}-2-methyl-phenyl)-pyridin-3-yl]-acetic Acid], the “Osteocalcin production level in MG-63 cells (%)” value is recorded as 660%.

For the molecule `CCC(CC)(c1ccc(-c2cncc(CC(=O)O)c2)cc1)c1ccc(C#CC2(O)CCCCC2)c(C)c1` [Example 147, [5-(4-{1-ethyl-1-[4-(1-hydroxy-cyclohexylethynyl)-3-methyl-phenyl]-propyl}-phenyl)-pyridin-3-yl]-acetic Acid], the “Osteocalcin production level in MG-63 cells (%)” value worked out at 1228%.

As for `CCC(CC)(c1ccc(/C=C/C2(O)CCCCC2)c(C)c1)c1ccc(-c2ccc(CC(=O)O)c(F)c2)c(C)c1` [Example 88, [4′-(1-ethyl-1-{4-[(E)-2-(1-hydroxy-cyclohexyl)-vinyl]-3-methyl-phenyl}-propyl)-3-fluoro-2′-methyl-biphenyl-4-yl]-acetic Acid], the “Osteocalcin production level in MG-63 cells (%)” value is reported as 4562%.

On to `CCC(CC)(c1ccc(CCC(O)C(C)(C)C)c(C)c1)c1ccc(-c2ccc(CC(=O)O)cc2)c(C)c1` (single isomer, unassigned) [Example 13, (4′-{1-ethyl-1-[4-(3-hydroxy-4,4-dimethyl-pentyl)-3-methyl-phenyl]-propyl}-2′-methyl-biphenyl-4-yl)-acetic Acid], for which the “Osteocalcin production level in MG-63 cells (%)” value was found to be 401%.

`CCC(CC)(c1ccc(/C=C/C2(O)CCCCC2)c(C)c1)c1ccc(-c2ccc(CC(=O)O)c(Cl)c2)c(C)c1` [Example 90, [3-chloro-4′-(1-ethyl-1-{4-[(E)-2-(1-hydroxy-cyclohexyl)-vinyl]-3-methyl-phenyl}-propyl)-2′-methyl-biphenyl-4-yl]-acetic Acid]: the “Osteocalcin production level in MG-63 cells (%)” value was 1604%.

As for `CCC(O)(/C=C/c1ccc(C(CC)(CC)c2ccc(-c3ccc(CC(=O)[O-])c(F)c3)c(C)c2)cc1C)CC.[Na+]` [Example 48, Sodium (4′-{1-ethyl-1-[4-((E)-3-ethyl-3-hydroxy-1-pentenyl)-3-methyl-phenyl]-propyl}-3-fluoro-2′-methyl-biphenyl-4-yl)-acetate], the “Osteocalcin production level in MG-63 cells (%)” value is on record as 508%.

As for `CCC(CC)(c1ccc(C#CC(O)(C(F)(F)F)C(F)(F)F)c(C)c1)c1ccc(-c2ccc(CC(=O)O)cc2)c(C)c1` [Example 45, (4′-{1-ethyl-1-[3-methyl-4-(4,4,4-trifluoro-3-hydroxy-3-trifluoromethyl-1-butynyl)-phenyl]-propyl}-2′-methyl-biphenyl-4-yl)-acetic Acid], the “Osteocalcin production level in MG-63 cells (%)” value was determined as 546%.

In the case of `CCC(CC)(c1ccc(C#CC(O)(C(F)(F)F)C(F)(F)F)c(C)c1)c1ccc(-c2ccc(CC(=O)O)c(F)c2)c(C)c1` [Example 78, (4′-{1-ethyl-1-[3-methyl-4-(4,4,4-trifluoro-3-hydroxy-3-trifluoromethyl-1-butynyl)-phenyl]-propyl}-3-fluoro-2′-methyl-biphenyl-4-yl)-acetic Acid], the “Osteocalcin production level in MG-63 cells (%)” value turned out to be 617%.

With `CCC(O)(/C=C/c1ccc(C(CC)(CC)c2ccc(-c3ccc(CC(=O)O)cc3)c(C)c2)cc1C)CC` [Example 22, (E)-(4′-{1-ethyl-1-[4-(3-ethyl-3-hydroxy-1-pentenyl)-3-methyl-phenyl]-propyl}-2′-methyl-biphenyl-4-yl)-acetic Acid], the “Osteocalcin production level in MG-63 cells (%)” value stood at 1044%.

As for `CCC(CC)(c1ccc(/C=C/C2(O)CCCC2)c(C)c1)c1ccc(-c2ccc(CC(=O)[O-])c(F)c2)c(C)c1.[Na+]` [Example 84, Sodium [4′-(1-ethyl-1-{4-[(E)-2-(1-hydroxy-cyclopentyl)-vinyl]-3-methyl-phenyl}-propyl)-3-fluoro-2′-methyl-biphenyl-4-yl]-acetate], the “Osteocalcin production level in MG-63 cells (%)” value is listed as 739%.

`CCC(CC)(c1ccc(/C=C/C(O)(C(F)(F)F)C(F)(F)F)c(C)c1)c1ccc(-c2ccc(CC(=O)O)c(Cl)c2)c(C)c1` [Example 73, (3-chloro-4′-{1-ethyl-1-[3-methyl-4-((E)-4,4,4-trifluoro-3-hydroxy-3-trifluoromethyl-1-butenyl)-phenyl]-propyl}-2′-methyl-biphenyl-4-yl)-acetic Acid]: the “Osteocalcin production level in MG-63 cells (%)” value was found to be 1595%.

On to `CCC(CC)(c1ccc(/C=C/C2(O)CCCC2)c(C)c1)c1ccc(-c2ccc(CC(=O)O)cc2)c(C)c1` [Example 53, (E)-[4′-(1-Ethyl-1-{4-[2-(1-hydroxy-cyclopentyl)-vinyl]-3-methyl-phenyl}-propyl)-2′-methyl-biphenyl-4-yl]-acetic Acid], for which the “Osteocalcin production level in MG-63 cells (%)” value is on record as 772%.

In the case of `CCC(CC)(c1ccc(OCC(O)C(C)(C)C)c(C)c1)c1ccc(-c2ccc(CC(=O)O)c(F)c2)c(C)c1` (centres unmarked) [Example 100, (4′-{1-ethyl-1-[4-(2-hydroxy-3,3-dimethyl-butoxy)-3-methyl-phenyl]-propyl}-3-fluoro-2′-methyl-biphenyl-4-yl)-acetic Acid], the “Osteocalcin production level in MG-63 cells (%)” value was found to be 878%.

On to `CCC(CC)(c1ccc(CCC(O)C(C)(C)C)c(C)c1)c1ccc(-c2ccc(CC(=O)O)c(Cl)c2)c(C)c1` (centres unmarked) [Example 61, (4′-{1-ethyl-1-[4-(3-hydroxy-4,4-dimethyl-pentyl)-3-methyl-phenyl]-propyl}-3-chloro-2′-methyl-biphenyl-4-yl)-acetic Acid], for which the “Osteocalcin production level in MG-63 cells (%)” value is reported as 956%.
